Data as given in patent EP1331219A1.
Structures can show the parent of a compound that is named as a salt.

Key:
Format in all cases: binding, mouse
[1] = tested on: murine monoclonal antibody 6H5D1C4 (DASM243-6H5D1C4); test: Competition ELISA on BSA-Met1 coated plates: cross reactivity with methamphetamine analogs; conditions: methamphetamine recognized more than ecstasy
[2] = target: murine monoclonal antibody DASM243-A10A6A2 (IgG1), raised against TT-Met1; test: RIA: affinity determination by competition between labeled and unlabeled metabolite; conditions: purified mAb, calculated by the method of Müller from IC50
[3] = target: murine monoclonal antibody DASM243-6H5D1C4 (IgG2b), raised against TT-Met1; test: as above; conditions: purified mAb, calculated by the method of Müller from IC50

SMILES | recognition of methamphetamine relative to ecstasy [1] [times] | Ka [2] [M⁻¹] | Ka [3] [M⁻¹]
CN[C@@H](C)Cc1ccccc1 [Methamphetamine, methamphetamine] | 10 |  | 
CNC(C)Cc1ccccc1 (stereo not drawn) [methamphetamine oxalate] |  | 5.58e+06 | 2.58e+08
